Test results reported in patent US9266878B2, “Phosphatidylinositol 3-kinase inhibitors” (Gilead Calistoga LLC, priority 2012, dated 2016).

Tests used:
Assay in all cases: Enzymatic activity of PI3K isoforms, TR-FRET assay (PIP3 formation)
Assay type in all cases: biochemical
PI3Kα = PI3Kα (Homo sapiens (Human), UniProt P42336)
Procedure, shortened: (§1)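 After 30 min at 25° C, reactions were quenched with 10 mM EDTA plus 10 nM labeled-PIP3 and 35 nM Europium-GRP-1, and TR-FRET was read (Ex 340, Em 615/665 nm). Enzymes were purified recombinant heterodimers; product PIP3 competes off the labeled tracer. Values given as IC50, nM.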

PI3Kδ = PI3Kδ (Homo sapiens (Human), UniProt O00329); settings: bound given in nM
PI3Kδ, sequence (O00329 whole entry): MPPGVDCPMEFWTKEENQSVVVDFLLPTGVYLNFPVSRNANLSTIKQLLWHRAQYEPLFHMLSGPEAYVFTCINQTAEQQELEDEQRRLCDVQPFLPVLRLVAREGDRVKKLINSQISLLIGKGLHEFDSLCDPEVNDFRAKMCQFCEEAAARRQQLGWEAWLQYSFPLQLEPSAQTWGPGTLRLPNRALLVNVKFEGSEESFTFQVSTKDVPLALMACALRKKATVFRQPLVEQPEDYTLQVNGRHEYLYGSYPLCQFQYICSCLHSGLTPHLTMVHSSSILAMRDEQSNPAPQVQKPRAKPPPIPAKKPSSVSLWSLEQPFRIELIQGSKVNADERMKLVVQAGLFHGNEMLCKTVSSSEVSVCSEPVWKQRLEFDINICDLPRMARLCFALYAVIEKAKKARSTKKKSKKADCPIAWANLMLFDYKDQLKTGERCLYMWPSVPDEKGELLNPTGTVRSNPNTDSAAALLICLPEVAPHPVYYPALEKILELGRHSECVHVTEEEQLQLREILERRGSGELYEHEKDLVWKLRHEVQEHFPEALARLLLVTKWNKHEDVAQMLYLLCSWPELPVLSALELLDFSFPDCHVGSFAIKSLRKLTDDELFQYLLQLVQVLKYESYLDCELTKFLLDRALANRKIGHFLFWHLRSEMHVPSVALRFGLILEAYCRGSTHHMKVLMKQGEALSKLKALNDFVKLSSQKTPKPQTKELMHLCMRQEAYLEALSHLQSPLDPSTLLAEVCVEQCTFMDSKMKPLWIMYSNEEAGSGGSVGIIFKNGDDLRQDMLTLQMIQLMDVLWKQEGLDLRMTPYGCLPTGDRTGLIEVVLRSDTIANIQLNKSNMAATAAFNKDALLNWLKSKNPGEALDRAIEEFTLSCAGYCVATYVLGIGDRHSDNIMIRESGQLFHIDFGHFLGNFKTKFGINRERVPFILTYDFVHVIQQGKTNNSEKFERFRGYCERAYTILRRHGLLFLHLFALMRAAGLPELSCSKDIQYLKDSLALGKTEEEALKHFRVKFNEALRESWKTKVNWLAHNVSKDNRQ
PI3Kδ, sequence (P27986 whole entry partner): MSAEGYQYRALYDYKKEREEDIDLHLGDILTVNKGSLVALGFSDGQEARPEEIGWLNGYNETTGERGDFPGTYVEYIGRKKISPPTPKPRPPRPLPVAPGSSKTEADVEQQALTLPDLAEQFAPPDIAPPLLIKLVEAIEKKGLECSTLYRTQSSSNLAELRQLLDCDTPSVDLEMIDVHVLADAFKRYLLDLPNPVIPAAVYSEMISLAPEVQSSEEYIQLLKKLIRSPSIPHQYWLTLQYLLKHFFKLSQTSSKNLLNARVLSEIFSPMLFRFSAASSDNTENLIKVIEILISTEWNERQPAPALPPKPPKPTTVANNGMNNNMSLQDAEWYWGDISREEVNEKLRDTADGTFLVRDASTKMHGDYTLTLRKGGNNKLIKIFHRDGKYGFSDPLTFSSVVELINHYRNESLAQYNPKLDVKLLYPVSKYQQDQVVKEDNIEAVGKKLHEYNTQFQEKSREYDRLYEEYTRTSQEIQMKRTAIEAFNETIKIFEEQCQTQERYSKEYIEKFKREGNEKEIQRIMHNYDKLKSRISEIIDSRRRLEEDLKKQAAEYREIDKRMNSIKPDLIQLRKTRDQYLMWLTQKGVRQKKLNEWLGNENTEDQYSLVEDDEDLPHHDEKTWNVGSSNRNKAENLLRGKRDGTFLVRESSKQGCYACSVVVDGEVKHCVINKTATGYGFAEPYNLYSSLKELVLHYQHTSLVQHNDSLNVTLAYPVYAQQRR
Procedure, shortened: as §1

PI3Kβ = PI3Kβ (Homo sapiens (Human), UniProt P42338)
Procedure, shortened: (§2)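 IC50 (nM) reflects inhibition of PIP3 formation by purified recombinant heterodimeric PI3K, measured as loss of TR-FRET signal. The read-out comes from competition between enzyme-made PIP3 and labelled PIP3 for binding to the GRP-1 pleckstrin homology domain.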

PI3Kγ = PI3Kγ (Homo sapiens (Human), UniProt P48736)
PI3Kγ, sequence (P48736 whole entry): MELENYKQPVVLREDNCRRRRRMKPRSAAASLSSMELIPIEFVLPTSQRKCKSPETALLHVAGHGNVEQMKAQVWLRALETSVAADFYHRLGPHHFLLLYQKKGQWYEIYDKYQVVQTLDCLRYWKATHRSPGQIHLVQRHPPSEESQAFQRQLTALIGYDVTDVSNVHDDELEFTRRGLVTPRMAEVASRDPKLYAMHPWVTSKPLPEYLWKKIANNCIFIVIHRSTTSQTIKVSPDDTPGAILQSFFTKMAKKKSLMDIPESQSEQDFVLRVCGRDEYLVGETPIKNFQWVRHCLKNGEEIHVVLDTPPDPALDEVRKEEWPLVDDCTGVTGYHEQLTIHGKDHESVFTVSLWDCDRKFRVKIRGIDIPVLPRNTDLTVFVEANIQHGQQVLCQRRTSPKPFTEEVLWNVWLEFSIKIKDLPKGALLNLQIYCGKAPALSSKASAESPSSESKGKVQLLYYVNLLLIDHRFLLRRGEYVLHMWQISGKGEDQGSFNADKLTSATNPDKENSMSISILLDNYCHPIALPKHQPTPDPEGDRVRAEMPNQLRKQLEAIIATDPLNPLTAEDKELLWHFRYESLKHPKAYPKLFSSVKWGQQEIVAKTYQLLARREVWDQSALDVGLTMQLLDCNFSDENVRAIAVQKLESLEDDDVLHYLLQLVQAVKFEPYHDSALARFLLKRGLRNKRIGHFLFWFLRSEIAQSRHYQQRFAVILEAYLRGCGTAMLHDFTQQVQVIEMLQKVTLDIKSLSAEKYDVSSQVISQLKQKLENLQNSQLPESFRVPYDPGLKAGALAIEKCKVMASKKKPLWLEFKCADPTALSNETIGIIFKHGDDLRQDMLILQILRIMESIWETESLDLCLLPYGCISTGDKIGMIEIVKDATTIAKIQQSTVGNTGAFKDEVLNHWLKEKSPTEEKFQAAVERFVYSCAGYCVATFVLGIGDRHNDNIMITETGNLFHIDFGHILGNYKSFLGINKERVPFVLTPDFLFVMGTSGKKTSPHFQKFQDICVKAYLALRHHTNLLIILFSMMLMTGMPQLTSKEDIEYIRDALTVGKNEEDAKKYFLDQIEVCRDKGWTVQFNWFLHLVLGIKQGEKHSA
PI3Kγ, sequence (Q8WYR1 whole entry partner): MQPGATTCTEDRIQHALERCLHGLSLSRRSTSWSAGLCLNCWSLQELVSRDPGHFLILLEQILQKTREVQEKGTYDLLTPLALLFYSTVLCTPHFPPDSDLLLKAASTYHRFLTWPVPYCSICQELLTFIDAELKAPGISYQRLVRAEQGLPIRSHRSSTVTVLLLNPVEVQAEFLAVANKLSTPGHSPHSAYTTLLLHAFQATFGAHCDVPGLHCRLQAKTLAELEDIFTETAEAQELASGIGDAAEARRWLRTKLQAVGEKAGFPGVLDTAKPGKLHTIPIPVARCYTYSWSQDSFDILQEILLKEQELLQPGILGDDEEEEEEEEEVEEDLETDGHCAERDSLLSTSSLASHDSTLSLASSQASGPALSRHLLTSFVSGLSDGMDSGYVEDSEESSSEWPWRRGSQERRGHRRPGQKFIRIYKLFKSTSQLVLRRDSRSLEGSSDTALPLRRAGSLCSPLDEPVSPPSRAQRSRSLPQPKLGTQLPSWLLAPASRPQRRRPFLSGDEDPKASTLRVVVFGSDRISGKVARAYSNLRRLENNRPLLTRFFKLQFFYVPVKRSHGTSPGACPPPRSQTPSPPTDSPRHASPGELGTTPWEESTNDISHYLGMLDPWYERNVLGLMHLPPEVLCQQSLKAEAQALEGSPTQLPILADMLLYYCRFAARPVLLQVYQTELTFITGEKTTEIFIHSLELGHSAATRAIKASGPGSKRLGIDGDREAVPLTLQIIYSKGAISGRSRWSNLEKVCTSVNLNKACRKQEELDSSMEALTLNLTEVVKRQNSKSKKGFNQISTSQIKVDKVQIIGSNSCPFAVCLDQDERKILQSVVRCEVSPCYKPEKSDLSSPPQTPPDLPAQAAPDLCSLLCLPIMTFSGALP
Procedure, shortened: as §2

PI3Kα, sequence (P42336 whole entry): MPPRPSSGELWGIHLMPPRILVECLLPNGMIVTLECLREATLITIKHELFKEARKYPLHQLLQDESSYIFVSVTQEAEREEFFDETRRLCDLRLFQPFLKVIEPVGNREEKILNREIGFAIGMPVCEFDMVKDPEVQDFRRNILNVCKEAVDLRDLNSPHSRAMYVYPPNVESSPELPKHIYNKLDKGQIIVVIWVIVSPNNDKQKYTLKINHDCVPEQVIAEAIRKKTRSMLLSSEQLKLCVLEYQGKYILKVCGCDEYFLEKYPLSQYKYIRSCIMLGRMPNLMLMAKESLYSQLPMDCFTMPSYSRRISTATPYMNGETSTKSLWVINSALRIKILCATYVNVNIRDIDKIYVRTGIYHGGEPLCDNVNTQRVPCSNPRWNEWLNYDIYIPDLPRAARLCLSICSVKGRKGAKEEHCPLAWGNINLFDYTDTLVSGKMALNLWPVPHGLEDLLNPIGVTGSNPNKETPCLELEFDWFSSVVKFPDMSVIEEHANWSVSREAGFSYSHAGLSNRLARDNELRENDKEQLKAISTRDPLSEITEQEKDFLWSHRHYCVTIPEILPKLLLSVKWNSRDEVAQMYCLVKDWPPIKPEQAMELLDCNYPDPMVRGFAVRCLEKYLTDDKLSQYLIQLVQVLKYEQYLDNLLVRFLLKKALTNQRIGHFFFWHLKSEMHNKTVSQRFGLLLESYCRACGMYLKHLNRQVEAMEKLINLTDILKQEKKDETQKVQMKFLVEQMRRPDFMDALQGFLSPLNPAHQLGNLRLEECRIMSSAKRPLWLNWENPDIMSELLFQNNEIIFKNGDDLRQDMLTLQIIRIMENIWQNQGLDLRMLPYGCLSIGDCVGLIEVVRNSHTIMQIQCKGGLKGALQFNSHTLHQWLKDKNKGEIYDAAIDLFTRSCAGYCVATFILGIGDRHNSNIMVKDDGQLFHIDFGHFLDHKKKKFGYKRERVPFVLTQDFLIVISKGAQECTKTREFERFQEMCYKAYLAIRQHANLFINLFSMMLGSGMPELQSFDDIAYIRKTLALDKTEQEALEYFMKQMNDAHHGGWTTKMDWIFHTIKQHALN
PI3Kα, sequence (P27986 whole entry partner): as the sequence (P27986 whole entry partner) above

| SMILES | IC50 (PI3Kα; bound given in uM) [µM] | IC50 (PI3Kδ) [nM] | IC50 (PI3Kβ; bound given in uM) [µM] | IC50 (PI3Kγ; bound given in uM) [µM] | IC50 (PI3Kα; bound given in nM) [µM] | IC50 (PI3Kβ; bound given in nM) [µM] | IC50 (PI3Kγ; bound given in nM) [µM] |
| --- | --- | --- | --- | --- | --- | --- | --- |
| C[C@H](Nc1ncnc(N)c1C#Cc1ccccn1)c1nc2cccc(Cl)c2c(=O)n1-c1cc(F)cc(F)c1 [Compound 45a, (S)-2-(1-(6-amino-5-(pyridin-2-ylethynyl)pyrimidin-4-ylamino)ethyl)-5-chloro-3-(3,5-difluorophenyl)quinazolin-4(3H)-one] | > 1 | < 100 | > 1 | > 1 |  |  |  |
| C[C@H](Nc1ncnc(N)c1C#Cc1cnccn1)c1nc2cccc(Cl)c2c(=O)n1-c1cccc(C#N)c1 [Compound 93a, (S)-3-(2-(1-((6-amino-5-(pyrazin-2-ylethynyl)pyrimidin-4-yl)amino)ethyl)-5-chloro-4-oxoquinazolin-3(4H)-yl)benzonitrile] | > 1 | < 100 | > 1 | > 1 |  |  |  |
| C[C@H](Nc1ncnc(N)c1C#Cc1ccc(F)cn1)c1nc2cccc(C(F)(F)F)c2c(=O)n1-c1ccccc1 [Compound 68a, (S)-2-(1-((6-amino-5-((5-fluoropyridin-2-yl)ethynyl)pyrimidin-4-yl)amino)ethyl)-3-phenyl-5-(trifluoromethyl)quinazolin-4(3H)-one] | > 1 | < 100 | > 1 | > 1 |  |  |  |
| COc1cccc(-n2c([C@H](C)Nc3ncnc(N)c3C#Cc3ncccc3F)nc3cccc(Cl)c3c2=O)c1C [81-1a] | > 1 | < 100 | > 1 | > 1 |  |  |  |
| C[C@H](Nc1ncnc(N)c1C#Cc1ccc(F)cn1)c1nc2cccc(Cl)c2c(=O)n1-c1cccc(C#N)c1 [Compound 92a, (S)-3-(2-(1-((6-amino-5-((5-fluoropyridin-2-yl)ethynyl)pyrimidin-4-yl)amino)ethyl)-5-chloro-4-oxoquinazolin-3(4H)-yl)benzonitrile] | > 1 | < 100 | > 1 | > 1 |  |  |  |
| Cc1cccc2nc([C@H](C)Nc3ncnc(N)c3C#Cc3ccc(F)cn3)n(-c3cccc(CN(C)S(C)(=O)=O)c3)c(=O)c12 [Compound 128a, (S)—N-(3-(2-(1-((6-amino-5-((5-fluoropyridin-2-yl)ethynyl)pyrimidin-4-yl)amino)ethyl)-5-methyl-4-oxoquinazolin-3(4H)-yl)benzyl)-N-methylmethanesulfonamide] | > 1 | < 100 | > 1 | > 1 |  |  |  |
| C[C@H](O)C#Cc1c(N)ncnc1N[C@@H](C)c1nc2cccc(Cl)c2c(=O)n1-c1cc(F)cc(F)c1 [Compound 20b, 2-((S)-1-(6-amino-5-((S)-3-hydroxybut-1-ynyl)pyrimidin-4-ylamino)ethyl)-5-chloro-3-(3,5-difluorophenyl)quinazolin-4(3H)-one] | > 1 | < 100 | > 1 | > 1 |  |  |  |
| C[C@H](Nc1ncnc(N)c1C#Cc1cccc(CN)n1)c1nc2cccc(Cl)c2c(=O)n1-c1ccccc1 [Compound 159a, (S)-2-(1-((6-amino-5-((6-(aminomethyl)pyridin-2-yl)ethynyl)pyrimidin-4-yl)amino)ethyl)-5-chloro-3-phenylquinazolin-4(3H)-one] | > 1 | < 100 | > 1 | > 1 |  |  |  |
| C[C@H](Nc1ncnc(N)c1C#Cc1ccc(F)cn1)c1nc2c(F)ccc(F)c2c(=O)n1-c1cc(F)cc(F)c1 [Compound 1a, (S)-2-(1-((6-amino-5-((5-fluoropyridin-2-yl)ethynyl)pyrimidin-4-yl)amino)ethyl)-3-(3,5-difluorophenyl)-5,8-difluoroquinazolin-4(3H)-one] | > 1 | < 100 | > 1 | > 1 |  |  |  |
| C[C@H](Nc1ncnc(N)c1C#CC1CCCCC1)c1nc2cccc(Cl)c2c(=O)n1-c1ccccc1 [Compound 145a, (S)-2-(1-((6-amino-5-(cyclohexylethynyl)pyrimidin-4-yl)amino)ethyl)-5-chloro-3-phenylquinazolin-4(3H)-one] | > 1 | < 100 | > 1 | > 1 |  |  |  |
| CC[C@H](Nc1ncnc(N)c1C#Cc1cnccn1)c1nc2cccc(F)c2c(=O)n1-c1cc(F)cc(F)c1 [Compound 107a, (S)-2-(1-((6-amino-5-(pyrazin-2-ylethynyl)pyrimidin-4-yl)amino)propyl)-3-(3,5-difluorophenyl)-5-fluoroquinazolin-4(3H)-one] | > 1 | < 100 | > 1 | > 1 |  |  |  |
| CC[C@H](Nc1ncnc(N)c1C#Cc1cnccn1)c1nc2cccc(C(F)F)c2c(=O)n1-c1cc(F)cc(F)c1 [Compound 74a, (S)-2-(1-((6-amino-5-(pyrazin-2-ylethynyl)pyrimidin-4-yl)amino)propyl)-5-(difluoromethyl)-3-(3,5-difluorophenyl)quinazolin-4(3H)-one] | > 1 | < 100 | > 1 | > 1 |  |  |  |
| C[C@H](Nc1ncnc(N)c1C#CC1CC1)c1nc2cccc(Cl)c2c(=O)n1-c1ccccc1 [Compound 24a, (S)-2-(1-(6-amino-5-(cyclopropylethynyl)pyrimidin-4-ylamino)ethyl)-5-chloro-3-phenylquinazolin-4(3H)-one] | > 1 | < 100 | > 1 | > 1 |  |  |  |
| C[C@H](Nc1ncnc(N)c1C#Cc1ccccc1)c1nc2cccc(F)c2c(=O)n1-c1cccc(C#N)c1 [Compound 110a, (S)-3-(2-(1-((6-amino-5-(phenylethynyl)pyrimidin-4-yl)amino)ethyl)-5-fluoro-4-oxoquinazolin-3(4H)-yl)benzonitrile] | > 1 | < 100 | > 1 | > 1 |  |  |  |
| C[C@H](Nc1ncnc(N)c1C#C[C@@H](C)O)c1nc2cccc(Cl)c2c(=O)n1-c1cc(F)cc(F)c1 [Compound 20a, 2-((S)-1-(6-amino-5-((R)-3-hydroxybut-1-ynyl)pyrimidin-4-ylamino)ethyl)-5-chloro-3-(3,5-difluorophenyl)quinazolin-4(3H)-one] | > 1 | < 100 | > 1 | > 1 |  |  |  |
| C[C@H](Nc1ncnc(N)c1C#Cc1cnccn1)c1nc2cccc(F)c2c(=O)n1-c1cc(F)cc(F)c1 [Compound 87a, (S)-2-(1-((6-amino-5-(pyrazin-2-ylethynyl)pyrimidin-4-yl)amino)ethyl)-3-(3,5-difluorophenyl)-5-fluoroquinazolin-4(3H)-one] | > 1 | < 100 | > 1 | > 1 |  |  |  |
| C[C@H](Nc1ncnc(N)c1C#Cc1cnc(N)cc1C(F)(F)F)c1nc2cccc(Cl)c2c(=O)n1-c1ccccc1 [Compound 18a, (S)-2-(1-(6-amino-5-((6-amino-4-(trifluoromethyl)pyridin-3-yl)ethynyl)pyrimidin-4-ylamino)ethyl)-5-chloro-3-phenylquinazolin-4(3H)-one] |  | < 100 |  |  | < 0.1 | < 0.1 | < 0.1 |
| C[C@H](Nc1ncnc(N)c1C#Cc1cnccn1)c1nc2cccc(Cl)c2c(=O)n1N1CCCCCC1 [Compound 126a, (S)-2-(1-((6-amino-5-(pyrazin-2-ylethynyl)pyrimidin-4-yl)amino)ethyl)-3-(azepan-1-yl)-5-chloroquinazolin-4(3H)-one] | > 1 | < 100 | > 1 | > 1 |  |  |  |
